Experimental data: US4868114A, “Method for elevating glutathione levels” (Regents of the University of Minnesota, priority 1989, dated 1989)

How the values were obtained:
[1] = system: acetaminophen-induced hepatotoxicity; assay: Protection against acetaminophen-induced hepatotoxicity in mice; type: in vivo; settings: prodrug 2.45 mmole/kg ip 30 min later; for Survival (48 hr) (%) / Survival (48 hr) (Number): LD90 acetaminophen 750 mg/kg ip; for Survival (48 hr) (Number): survivors/total; for Number of Animals with necrosis 0 / Number of Animals with necrosis 1+ / Number of Animals with necrosis 2+ / Number of Animals with necrosis 3+ / Number of Animals with necrosis 4+: LD90 acetaminophen ip, liver histology, Mitchell rating
Method: Compounds 1a through 1h were evaluated in a mouse model for their ability to protect against the hepatotoxic action of acetaminophen. The experimental protocol involved the administration of an LD90 dose of acetaminophen, followed 30 min. later by the prodrug as potential protective agent. Toxicity was assessed based on overall survival data at 48 hrs, as well as on histological criteria of hepatocellular damage using the rating system of J. R. Mitchell et al., J. Pharmacol. Exp. Ther., 187, 185 (1973).
The prodrugs of L-cysteine were examined for their ability to protect against acetaminophen-induced hepatotoxicity in mice essentially as described by H. T. Nagasawa et al., J. Med. Chem., 25, 489 (1982). Male Swiss-Webster mice (19 to 31 g) were fasted overnight but given free access to water. An LD90 dose of acetaminophen (750 mg/kg, 4.97 mmol/kg, ip) was then administered, followed 30 min later by a 2.45 mmole/kg ip dose of the L-cysteine prodrug. All injection solutions were freshly prepared in sterile water, except where solubility problems required the use of sterile 0.1N aqueous NaHCO3 or a slurry of the prodrug in 2% aqueous carboxymethylcellulose (CMC). The animals were then given food and water ad libitum and were observed over a 48-hr period.
Represenative sections from the central lobe of the liver were obtained from those animals found dead at 12, 24 and 48 hr. Survivors at 48 hr were sacrificed by cervical dislocation and the liver sections were similarly excised and sectioned. All specimens were fixed on 10% buffered formalin and in Form-a-Less (PMP, Inc., San Diego, CA) and stained with hematoxylin and eosin. The extent of hepatic necrosis was evaluated histologically by an investigator who had no knowledge of the experimental protocols or sample identity.

rat hepatocytes [2] = assay: Stimulation of glutathione (GSH) biosynthesis in isolated rat hepatocytes by L-cysteine prodrugs; type: cell-based; settings: for [GSH] ± SE: control 35.4 ± 0.78
Method: (§1) Rat hepatocytes were isolated following the methods of P. O. Seglen, Exper. […] After final plating, the hepatocytes were maintained in culture for 24 hr prior to use. Only primary cultures were used throughout the studies. The hepatocytes were incubated with the cysteine prodrugs for a 4-hr period, and after removal of media by aspiration, the cells were rinsed with cold phosphate-buffered saline and deproteinized with 5% sulfosalicylic acid. […] For the inhibition studies with BSO, the cells were pre-exposed to BSO (0.20 mM) before treatment with the L-cysteine prodrugs.

rat hepatocytes [3] = assay: Inhibitory effect of buthionine sulfoximine (BSO) on GSH elevation elicited by L-cysteine prodrugs in rat hepatocytes; type: cell-based; settings: for [GSH] ± SE: rat hepatocytes pre-exposed to BSO 0.2 mM, 4 hr; for [GSH] Rel. to Controls: rat hepatocytes, BSO 0.2 mM, 240 min
Method: as §1

[4] = system: heptatotoxic dosages of acetaminophen; settings: previous studies (Nagasawa 1984; Meister US 4,335,210); cited from earlier work
[5] = Hepatocyte, rat hepatocytes, prodrug 1.0 mM, 4 hr incubation, read-out: [GSH] Rel. to Controls
[6] = rat hepatocytes, prodrug 1.0 mM, 4 hr incubation

SMILES	Survival (48 hr) (%) [1] [%]	Survival (48 hr) (Number) [1]	Number of Animals with necrosis 0 [1]	Number of Animals with necrosis 1+ [1]	Number of Animals with necrosis 2+ [1]	Number of Animals with necrosis 3+ [1]	Number of Animals with necrosis 4+ [1]	fold induction at 1000 µM (rat hepatocytes [2]; [5])	[GSH] ± SE (rat hepatocytes [2]; [6]) [nmol/10^6 cells]	[GSH] ± SE (rat hepatocytes [3]; prodrug 1.0 mM) [nmol/10^6 cells]	[GSH] Rel. to Controls (rat hepatocytes [3]; prodrug 1.0 mM)	protection of mice from hepatotoxic dosages of acetaminophen [4]	[GSH] Rel. to Controls (rat hepatocytes [2]; [6])	fold induction at 2500 µM (rat hepatocytes [2]; Rattus norvegicus, Hepatocyte, 4 h, read-out: [GSH] Rel. to Controls)	[GSH] ± SE (rat hepatocytes [2]; rat hepatocytes, 2.5 mM, 4 hr incubation) [nmol/10^6 cells]	raised GSH levels by (rat hepatocytes [2]; rat hepatocytes, 2.5 times the concentration of the thiazolidine prodrugs) [%]	[GSH] ± SE (rat hepatocytes [3]; 2.5 mM) [nmol/10^6 cells]	[GSH] Rel. to Controls (rat hepatocytes [3]; 2.5 mM)
O=C(O)[C@@H]1CSC([C@@H](O)[C@H](O)[C@H](O)CO)N1 (mixture of isomers) [AraCys, 2(R,S)-D-arabino-1',2',3',4'-Tetrahydroxybutylthiazolidine-4(R)-carboxylic Acid]	40	4/10	0	1	2	0	7	1.2	42.9 ± 2.17	19.5 ± 3.75	0.6	–	–	–	–	–	–	–
CC1N[C@H](C(=O)O)CS1 (stereo partly drawn) [2(R,S)-methylthiazolidine-4R-carboxylate]	–	–	–	–	–	–	–	–	–	–	–	can protect mice	–	–	–	–	–	–
CCCCCC1N[C@H](C(=O)O)CS1 (stereo partly drawn) [2(R,S)-n-pentyl]	–	–	–	–	–	–	–	–	–	–	–	can protect mice	–	–	–	–	–	–
CCCC1N[C@H](C(=O)O)CS1 (stereo partly drawn) [2(R,S)-n-propyl-]	–	–	–	–	–	–	–	–	–	–	–	can protect mice	–	–	–	–	–	–
O=C(O)[C@@H]1CSC([C@H](O)[C@@H](O)[C@@H](O)[C@H](O)CO)N1 (stereo partly drawn) [GalCys, 2(R,S)-D-galacto-1',2',3',4',5'-Pentahydroxypentylthiazolidine-4(R)-carboxylic Acid]	60	6/10	1	3	2	0	4	1.6	58.0 ± 2.00	23.2 ± 2.56	0.7	–	–	–	–	–	–	–
O=C(O)[C@@H]1CSC([C@H](O)[C@@H](O)[C@H](O)[C@H](O)CO)N1 (stereo partly drawn) [GlcCys, 2(R,S)-D-gluco-1',2',3',4',5'-Pentahydroxypentylthiazolidine-4(R)-carboxylic Acid]	30	3/10	0	2	0	1	7	2.1	75.2 ± 2.15	25.4 ± 0.99	0.7	–	over twice	–	–	–	–	–
O=C(O)[C@@H]1CSC([C@H](O)CO)N1 (stereo partly drawn) [GlycCys, 2(R,S)-D-glycero-1',2'-Dihydroxyethylthiazolidine-4(R)carboxylic Acid]	30	3/10	0	0	1	2	7	1.3	46.1 ± 1.10	18.3 ± 6.41	0.5	–	–	–	–	–	–	–
O=C1N[C@H](C(=O)O)CS1 [L-2-oxothiazolidine-4-carboxylate]	–	–	–	–	–	–	–	–	–	–	–	can protect mice	–	–	–	–	–	–
O=C(O)[C@@H]1CSC([C@@H](O)[C@@H](O)[C@H](O)CO)N1 (stereo partly drawn) [LyxCys, 2(R,S)-D-lyxo-1',2',3',4'-Tetrahydroxybutylthiazolidine-4(R)-carboxylic Acid]	30	3/10	0	0	0	1	9	1.3	45.9 ± 1.95	22.4 ± 1.98	0.6	–	–	–	–	–	–	–
O=C(O)[C@@H]1CSC([C@@H](O)[C@@H](O)[C@H](O)[C@H](O)CO)N1 (stereo partly drawn) [ManCys, 2(R,S)-D-manno-1',2',3',4',5'-Pentahydroxypentylthiazolidine-4(R)-carboxylic Acid]	40	4/10	3	0	1	0	6	1.6	57.8 ± 0.87	18.9 ± 1.87	0.5	–	–	–	–	–	–	–
CC(=O)N[C@@H](CS)C(=O)O [NAC, N-Acetyl-L-cysteine, reference compound]	94	17/18	13	3	0	1	1	–	–	–	–	can protect mice	–	1.3	45.8 ± 1.27	30	25.5 ± 1.59	0.7
O=C(O)[C@@H]1CSC([C@H](O)[C@H](O)[C@H](O)CO)N1 (stereo partly drawn) [RibCys, 2(R,S)-D-ribo-1',2',3',4'-Tetrahydroxybutylthiazolidine-4(R)-carboxylic Acid]	100	12/12	4	2	6	0	0	1.7	61.2 ± 1.52	16.2 ± 3.60	0.5	–	–	–	–	–	–	–
O=C(O)[C@@H]1CSC([C@H](O)[C@@H](O)[C@H](O)CO)N1 (stereo partly drawn) [XylCys, 2(R,S)-D-xylo-1',2',3',4'-Tetrahydroxybutylthiazolidine-4(R)-carboxylic Acid]	60	6/10	3	2	0	0	5	1.6	58.3 ± 0.99	22.6 ± 1.84	0.8	–	–	–	–	–	–	–
